In patent publication US12643913B2, “Mcl-1 inhibitor formulations” (AMGEN INC., priority 2020, dated 2026):

Assay: Pharmacokinetics after oral gavage to male beagle dogs with different pre-treatments (Amgen study 150528)
Type: in vivo
Conditions: 3 mg/kg PO; for AUCt / Cl/F / Cmax / Tmax / T½: male beagle dogs
Experimental: The pharmacokinetics of AMG 397 were assessed following oral administration to male beagle dogs as either a suspension of the crystalline hydrate form of AMG 397 or an amorphous suspension in 2% HPMC, 0.01% Tween 80. The full protocol is described in Amgen study number 150528. The goal of this study was to determine if the amorphous material would lead to increases in bioavailability and if variability in dosing could be reduced. In addition, oncology patients could be receiving acid-reducing agents as co-medication, so it is important to determine if exposure is reduced with elevated stomach pH and if an amorphous formulation of AMG 397 could overcome the drug-drug interaction (DDI). For the studies below, Form 1 is the crystalline hydrate form of AMG 397 and amorphous is the amorphous form of AMG 397.
Briefly, during each phase five male beagle dogs were assigned to each group of the study. All animals were fasted for at least eight hours prior to dosing and through the first four hours of blood sample collection for each phase. Food was returned within 30 minutes following collection of the last blood sample at the four-hour collection interval. Each animal in Phase 1, received a single oral (PO) gavage dose of the appropriate test article formulation as outlined in the study design Table 6. Oral gavage dosing formulations were continuously stirred throughout dosing. The gavage tube was rinsed with approximately 10 mL of tap water following dosing (prior to removal of the gavage tube). Following each study phase a 7-day washout period was allowed prior to the dosing of the next phase. The same five dogs were assigned to either group 1 or group 2 formulations for the duration of the study.
Test Article Administration: A total of 10 male beagle dogs were initially assigned to study. All animals were fasted for at least eight hours prior to dosing and through the first four hours of blood sample collection for each phase, where applicable (food will be returned within 30 minutes following collection of the last blood sample at the four hour collection interval, where applicable). Total fasting time […] 24 hours.
(§1) Each animal in Phase 1, Groups 1 and 2 received a single oral (PO) gavage dose of the appropriate test article formulation as outlined in the following study design table. Oral gavage dosing formulations was continuously stirred throughout dosing. The gavage tube was rinsed with approximately 10 mL of tap water following dosing (prior to removal of the gavage tube). No pre-treatment will be required for Phase 1.
as §1, with “After a 7-day washout period, each” for “Each”, “2,” for “1,”, “land” for “1 and”, “were” for “was”, “Two hours prior to dosing, each animal received two 20 mg (40 mg total) oral tablets of famotidine followed by a 10 mL dose of deionized water.” for “No pre-treatment will be required for Phase 1.”
After another 7-day washout period, each animal in Phase 3, Groups land 2 received a single oral (PO) gavage dose of the appropriate test article formulation as outlined in the following study design table. Oral gavage dosing formulations were continuously stirred throughout dosing. The gavage tube was rinsed with approximately 10 mL of tap water following dosing (prior to removal of the gavage tube). Thirty minutes prior to dosing, each animal received an intramuscular dose of pentagastrin in phosphate buffered saline at a dose level of 0.006 mg/kg and a dose volume of 0.05 mL/kg.
After a final 7-day washout period, each animal in Phase 4, Groups 1 and 2 received a single oral (PO) gavage dose of the appropriate test article formulation as outlined in the following study design table. Oral gavage dosing formulations were continuously stirred throughout dosing. […]

[1] = Phase 2, famotidine pre-treatment (stomach pH ~6.5)
[2] = Phase 3, pentagastrin pre-treatment (stomach pH ~2.0)
[3] = Phase 4, pentagastrin pre-treatment + P-gp inhibitor GF120918

AUCt (Phase 1, no pre-treatment): 17.3 µM·h
Cl/F (Phase 1, no pre-treatment): 6.7 mL/min/kg
Cmax (Phase 1, no pre-treatment): 790 nM
Tmax (Phase 1, no pre-treatment): 3.1 h
T½ (Phase 1, no pre-treatment): 18.4 h
AUCt [1]: 21.1 µM·h
Cl/F [1]: 3.67 mL/min/kg
Cmax [1]: 900 nM
Tmax [1]: 8.1 h
T½ [1]: 19.7 h
AUCt [2]: 18 µM·h
Cl/F [2]: 4.33 mL/min/kg
Cmax [2]: 780 nM
Tmax [2]: 10.4 h
T½ [2]: 18.3 h
AUCt [3]: 26.0 µM·h
Cl/F [3]: 4.33 mL/min/kg
Cmax [3]: 950 nM
Tmax [3]: 12.4 h
T½ [3]: 16.5 h
Effect of stomach pH on exposure (beagle dogs): not affected by stomach pH
Bioavailability relative to the crystalline hydrate form (stomach pH elevated, beagle dogs): 3.4 fold
Bioavailability relative to the crystalline hydrate form (stomach pH low, beagle dogs): 1.6 fold
SMILES: CO[C@]1(CN2CCN3CCCC[C@@H]3C2)/C=C/C[C@H](C)[C@@H](C)S(=O)(=O)NC(=O)c2ccc3c(c2)N(C[C@@H]2CC[C@H]21)C[C@@]1(CCCc2cc(Cl)ccc21)CO3 [AMG 397 Amorphous]
